These results are taken from patent publication US12357632B2, “Methods of treating cholangiocarcinoma” (QED Therapeutics, Inc., priority 2019, dated 2025).

Molecules are shown by their SMILES.

One series deals with cholangiocarcinoma. The conditions noted are these: ABC-02 trial (Valle et al., 2010); cited from earlier work.
Series [1] is described as follows: Tolerability (body weight, clinical observations) in UREx-MR2057PD-AR xenograft study. It is filed as in vivo, Mouse (Mus musculus). As for the experimental part:
(§1) All animals were weighed at the same time as tumor size measurement. A Relative Body Weight loss (RBW loss) was considered as adverse effect of the treatment.
(§2) Mice were observed every day for physical appearance, behavior and clinical changes.
(§3) Relative Body Weight (RBW) is calculated for each measurement by dividing the body weight by the body weight at the start of treatment.
(§4) Individual Body weight loss percent (% BWL)=100−(BWX/BW0×100), where BWX is the BW at any day during the treatment and BW0 is the BW on the day of inclusion.
(§5) Mean Body weight loss percent (% BWL)=100−(mean BWX/mean BW0×100), where BWX is the mean BW at any day during the treatment and BW0 is the mean BW on the day of inclusion.

The subject of series [2] is advanced or metastatic cholangiocarcinoma with FGFR genetic alterations. The experiment in a line: Phase II study of oral BGJ398 in advanced or metastatic cholangiocarcinoma, Patient 5010004 (RECIST v1.1). It is filed as in vivo, human. As to conditions: Patient 5010004, oral erdafitinib prior to study treatment. As for the experimental part: This is a multi-center, open label, single arm phase II study evaluating BGJ398 anti-tumor activity in advanced or metastatic cholangiocarcinoma patients with FGFR genetic alterations. 125 mg of oral, monotherapy BGJ398 is administered once daily for the first 3 weeks (21 days) of each 28-day cycle. The starting dose of 125 mg may be reduced to 100 mg, 75 mg, or 50 mg. The treatment period begins on Cycle 1, Day 1, and continues until disease progression, unacceptable toxicity, withdrawal of informed consent, or death. Patients are evaluated for tumor response radiographically every 8 weeks until disease progression or discontinuation from study using RECIST v1.1 criteria.
Adult patients with histologically or cytologically confirmed advanced or metastatic cholangiocarcinoma with FGFR2 gene fusions or translocations or other FGFR genetic alteration who have evidence of radiologic progression following a cisplatin- and gemcitabine-containing regimen for advanced disease or a gemcitabine-containing regimen for those who are considered intolerant to cisplatin are enrolled. Up to approximately 160 adult patients over age 18, both male and female are enrolled. Three cohorts of patients comprise the study population: • Cohort 1: ˜120 patients, 108 with FGFR2 gene fusions or translocations and 12 with other FGFR genetic alterations. • Cohort 2: ˜20 patients with FGFR genetic alterations other than FGFR2 gene fusions or translocations. • Cohort 3: Up to ˜20 patients with FGFR2 gene fusions or translocations who have received a prior FGFR inhibitor. Main Inclusion Criteria
Tumor response according to RECIST v1.1, and survival.
During treatment with infigratinib, the patient's response was determined by follow-up assessments conducted by a local investigator per RECIST v1.1.

Series [3] in a line: Tolerability (body weight, clinical observations) in Vex-MR086M1 xenograft study. The format is in vivo, Mouse (Mus musculus). As for the experimental part: as §1, §2, §3, §4, §5

Consider `Nc1ccn([C@@H]2O[C@H](CO)[C@@H](O)C2(F)F)c(=O)n1` [gemcitabine], for which, in the series with cholangiocarcinoma, the median overall survival was 8.1 months and the median progression-free survival is given as 5.0 months.
Take `COc1cc(OC)cc(N(CCNC(C)C)c2ccc3ncc(-c4cnn(C)c4)nc3c2)c1` [Erdafitinib, reference compound]: in series [1] (erdafitinib 15 mg/kg PO qdx21), the clinical observations result is “No relevant observable signs were reported”, the “maximum mean body weight loss” value is “no maximum mean body weight loss” and the “tolerability” value is “well tolerated”. The “maximum individual body weight loss” value in series [1] (erdafitinib 15 mg/kg PO qdx21, on D3) was found to be 4.9%. In series [2], the best response entry is given as “progressive disease” and the “time to discontinuation due to radiological disease progression” value was “approximately 2 months”. In addition, in series [3] (erdafitinib 15 mg/kg PO qdx21), the clinical observations entry is reported as “No relevant observable signs were reported”, the “mean body weight loss” value is “no mean body weight loss” and the “tolerability” value is recorded as “well tolerated except for 1 mouse”. The “maximum individual body weight loss” value in series [3] (erdafitinib 15 mg/kg PO qdx21, on D17) is on record as 10.6%.
